Test results taken from PubChem BioAssay (NCI).
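Assay format: 96-well plates, 48-hour exposure. GI50 is the concentration that inhibits growth by half. Definition used: TGI = concentration required for complete inhibition of growth.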 Numbered stars: 1 amine (or outer) side, 2 acyl side, 3 side chain; on linkers, the order of the positions; unused ones are H or OH. Bridge positions count the residues as written; N and C are the ends. Square brackets hold non-standard residues; d marks the D form. Peptide text beside a SMILES is read from it. I, II: the chains in the order shown. Actinocin(1to9) = Cc1c2oc3c(C)ccc(C(=O)[*:2])c3nc-2c(C(=O)[*:1])c(N)c1=O; NMeY = CN[CH](Cc1ccc(O)cc1)C(=O)O; Sar = CNCC(=O)O

Key:
Assay in all cases: inhibition of tumour cell growth, NCI panel, 48 h
[1] = test system: DLD-1 colon
[2] = test system: DMS 273 small cell lung
[3] = test system: HOP-18 NSCLC
[4] = test system: LXFL 529 NSCLC
[5] = test system: M19-MEL melanoma
[6] = test system: SNB-78 CNS
[7] = test system: XF 498 CNS
[8] = test system: MDA-N
[9] = test system: RXF-631 renal

SMILES	TGI [1] [µM]	TGI [2] [µM]	TGI [3] [µM]	TGI [4] [µM]	TGI [5] [µM]	TGI [6] [µM]	TGI [7] [µM]	TGI [8] [µM]	TGI [9] [µM]	further results
COc1ccc2c(c1)CCc1c-2n[nH]c1-c1[nH]nc2c1CCc1cc(OC)ccc1-2	> 100	52.8	98.5	> 100	> 100	> 100	71.2			
COCCNc1cncc(C(N)=O)c1								> 100		
C[C@H]1C=C2C(=O)O[C@H]3CC[C@@H](C1)[C@@]23O	10.7		13.4	10.6	15.1	9.94				
CC(=O)NN1C(=O)C(Cc2ccccc2)c2ccccc21 (configuration not stated)	> 100	> 100	> 100		> 100	> 100	> 100		> 100	
O=C(O)c1ccc(SSc2ccc(C(=O)O)cn2)nc1								> 100		
CCC1=C(CC2NCCc3ccccc32)CC2c3cc(OC)c(OC)cc3CCN2C1 (configuration not stated)	> 100	3.02		> 100	29.5	6.77	13	8.25	4.44	
Nc1c2ccccc2nc2c(C(=O)Nc3ccc(S(N)(=O)=O)cc3)cccc12	> 100	> 100		> 100	> 100	> 100	> 100			
CCOC(=O)/C=C/c1cccc(F)c1								> 100		
CCCCN(CCCC)CC(C(C)=O)C(c1ccccc1)c1c(O)c2ccccc2oc1=O (configuration not stated)	> 100	> 100	> 100	> 100	> 100	> 100	> 100		> 100	
COc1cc(C(=O)c2cocc2C(=O)c2ccc3c(c2)OCO3)cc(OC)c1OC	> 100	> 100	> 100	> 31.6	> 100		32.1	0.311		
COc1ccc(OC(C)C(=O)O)c2c(=O)ccccc12 (configuration not stated)	> 100	> 100		> 100	> 100	> 100	> 100		> 100	
CC(=O)Oc1ccc2c(c1)C(=O)c1nc(C)c(C)nc1C2=O	> 100	> 100	> 100	> 100	9.42	> 100	> 100		> 91.9	
CC(SCc1ccccc1)C(=O)O (configuration not stated)								> 100		
CC1c2[nH]c3ccccc3c2CCN1O (configuration not stated)	> 100	> 100	> 100	> 100	> 100	> 100			> 100	
N#Cc1cccc(N2C(=O)C3C4C=CC(C3C2=O)C2C(=O)N(c3cccc(C#N)c3)C(=O)C42)c1 (configuration not stated)	> 46.4	> 31.6	> 100	> 46.4		33.7	36.2	> 100	42.9	
C=C1C[C@@H]2C[C@@H](C)CC(O)[C@]2(CCCN)C1O (some centres not stated)	> 100	> 100	> 100	> 100	> 100	> 100	> 100		> 100	
COC(C)C(O)(C(=O)OCC1=CCN2CCC(O)C12)C(C)(C)O (configuration not stated)								> 100		
c1ccc(OC2=NC3=S(S2)SC(Oc2ccccc2)=N3)cc1	35	85.6			34.7	48.1	32		52.1	
CN(N)c1nc(N)c(C#N)c(C#N)c1C#N								> 10		
NC(Cc1ccccc1)c1nccs1 (configuration not stated)								> 100		
CC(=O)[O-].N.N.N.N.[Co+3].[O-][Cl+3]([O-])([O-])[O-].[OH3+]	> 100	> 100		> 100		> 100				GI50 [1]: > 100 µM; GI50 [2]: > 100 µM; GI50 [4]: > 100 µM; GI50 [6]: > 100 µM
COc1ccc([C@@H]2OC(=O)C3C2C(=O)O[C@H]3c2ccc(OC)c(OC)c2)cc1OC (some centres not stated)		> 100	> 100		> 100	> 100	> 100		> 100	

SMILES	TGI [1] [µM]	TGI [2] [µM]	TGI [3] [µM]	TGI [4] [µM]	TGI [5] [µM]	TGI [6] [µM]	TGI [7] [µM]	TGI [8] [µM]	TGI [9] [µM]	further results
COc1ccc(CC2C(=O)OC(C)C(NC(=O)c3c4nc5c(C(=O)NC6C(=O)NC(C(C)C)C(=O)N7CCCC7C(=O)N(C)CC(=O)N(C)C(Cc7ccc(OC)cc7)C(=O)OC6C)ccc(C)c5oc-4c(C)c(=O)c3N)C(=O)NC(C(C)C)C(=O)N3CCCC3C(=O)N(C)CC(=O)N2C)cc1 (configuration not stated) (I: TVP[Sar][NMeY](Me) / II: TVP[Sar][NMeY](Me); ester I:1-I:C, II:1-II:C; linker I:N-II:N via Actinocin(1to9); configuration not given here)								0.218		
COc1ccc(-c2cc(=O)c3c(O)c(OC)c(OC)c(OC)c3o2)cc1								13		
CC(=O)[CH-]C(=O)c1ccccc1.CC(=O)[CH-]C(=O)c1ccccc1.[O-]c1ccc2c(c1)OCO2.[O-]c1ccc2c(c1)OCO2.[Ti+4]	> 100		> 100	49.9	54.5					GI50 [1]: 38.3 µM; GI50 [3]: 37.7 µM; GI50 [4]: 19.3 µM; GI50 [5]: 21.9 µM
C[C@]12C[C@H](O)[C@H]3[C@@H](CCC4=CC(=O)CC[C@@]43C)[C@@H]1CC[C@@H]2c1csc(-c2ccccc2)n1								> 100		
O=c1/c(=N\Nc2ccccc2)c2cccc3ccc4cccc1c4c32								> 100		
Nc1ccc(/C=C/c2ccc3cccnc3c2)cc1								> 100		
C[C@@H]1CC[C@@]2(NC1)O[C@H]1C[C@H]3[C@@H]4CC[C@H]5C[C@@H](O)CC[C@]5(C)[C@H]4CC[C@]3(C)[C@H]1[C@@H]2C								> 100		
O=C([O-])CC(=O)[O-].[NH-][C@@H]1CCCC[C@H]1[NH-].[Pt+4]				> 100	> 100	> 100		> 100		GI50 [4]: 25.2 µM; GI50 [5]: 14.3 µM; GI50 [8]: 19.9 µM; GI50 [6]: > 100 µM
O=c1c2cc3ccccc3n2c(=O)c2cc3ccccc3n12	> 100	> 100	> 100	> 100	> 100	> 100	> 100			
COC(=O)CC[C@]12C[C@]13CC[C@]1(C)C4C(C)C[C@]5(CC(C)C(=O)O5)OC4CC1(C)C3CCC2C(C)(C)O (some centres not stated)	> 100	> 100	> 100	> 100	> 100	> 100	87.6			
C=C1C(OC(C)=O)CC(OC(C)=O)C2(C)C(OC(C)=O)C(OC(C)=O)C3=C(C)C(OC(=O)/C=C/c4ccccc4)CC(C(OC(C)=O)C12)C3(C)C (configuration not stated)	> 100	> 100	> 100	> 100	> 100	> 100			> 100	
O=C1NC2C(O)CCCCC2C12CCCCC2 (configuration not stated)	> 100	> 100	> 100	> 100	> 100	> 100	> 100		> 100	
COC(=O)N/N=C(\C)CC(=O)Nc1ccc(Cl)cc1	> 100			> 100	> 100	> 100	> 100		> 100	
COc1cc(/C=N/N=C(\N)NO)c([N+](=O)[O-])cc1OC	> 100	> 100	> 100	> 100	> 100	> 100			> 100	
C1=CCCC=CCC1.C[PH+](C)C.C[PH+](C)C.C[PH+](C)C.[Cl-].[Ir]	> 100		> 100	62.2	> 100	> 100				GI50 [1]: > 100 µM; GI50 [3]: > 100 µM; GI50 [4]: 17.3 µM; GI50 [5]: 39.8 µM; GI50 [6]: > 100 µM
C[CH2][Sn]([CH2]C)([O]C(=O)c1ccc(F)cc1)[O]C(=O)c1ccc(F)cc1	> 65.8	> 100	29.6	21.1		37.9	37.3		32.3	GI50 [1]: 23.9 µM; GI50 [2]: 55.6 µM; GI50 [3]: 16.1 µM; GI50 [4]: 7.84 µM; GI50 [9]: 17.5 µM; GI50 [6]: 20 µM; GI50 [7]: 20.2 µM
COc1ccc2c(c1)CN1CCc3c(cc(OC)c(OC)c3OC)C1C2 (configuration not stated)	> 100	> 100	> 100	> 100	> 100	> 100	> 100			
CC[PH+](CC)CC.[Cl][Au]	2.93	22.1	3	1.07	6.56	5.93	2.67			GI50 [1]: 1.28 µM; GI50 [2]: 4.77 µM; GI50 [3]: 1.64 µM; GI50 [4]: 0.481 µM; GI50 [5]: 1.08 µM; GI50 [6]: 1.65 µM; GI50 [7]: 1.37 µM
COc1cc2cnc3c4cc(OCc5ccccc5)ccc4ccc3c2cc1OC	> 100		> 100	> 100	> 100	65.4			98.8	
CO[C@@]1(c2ccccc2)O[C@H]2OCCC2[C@H]1c1ccc(Cl)cc1 (some centres not stated)	> 100	> 100	99	> 100		> 100	69.3		> 100	
CC1=CCCC2C(C=O)(C1)CC(C)C2(CO)CC/C(=C/CO)CO (configuration not stated)	> 100	> 100	> 100	> 100	> 100	> 100			> 100	
